Results on 35 compounds are retold here after patent US7998965B2, “Glutamate aggrecanase inhibitors” (Wyeth LLC, priority 2005, dated 2011).

The target of one experiment is T1, purified recombinant human Aggrecanase-1 (rAgg1) (Homo sapiens, UniProt O75173).
T1 sequence (O75173 213-837): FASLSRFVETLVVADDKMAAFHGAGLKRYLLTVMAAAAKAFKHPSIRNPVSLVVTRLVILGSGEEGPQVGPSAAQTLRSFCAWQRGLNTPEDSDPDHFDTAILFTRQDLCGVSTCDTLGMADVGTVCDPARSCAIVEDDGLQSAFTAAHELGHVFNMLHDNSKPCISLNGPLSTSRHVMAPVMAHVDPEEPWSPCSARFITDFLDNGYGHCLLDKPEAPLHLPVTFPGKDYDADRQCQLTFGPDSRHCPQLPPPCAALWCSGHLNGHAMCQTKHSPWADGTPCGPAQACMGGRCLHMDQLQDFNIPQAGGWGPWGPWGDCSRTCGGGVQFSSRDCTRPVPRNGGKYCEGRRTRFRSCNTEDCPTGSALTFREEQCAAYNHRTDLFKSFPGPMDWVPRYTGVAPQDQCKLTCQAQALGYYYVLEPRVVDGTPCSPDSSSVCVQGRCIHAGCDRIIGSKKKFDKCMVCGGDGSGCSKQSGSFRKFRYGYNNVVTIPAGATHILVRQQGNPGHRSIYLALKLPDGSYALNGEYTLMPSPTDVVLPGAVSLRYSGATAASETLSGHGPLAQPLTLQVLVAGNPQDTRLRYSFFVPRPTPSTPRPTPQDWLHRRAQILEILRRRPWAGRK
Description: In vitro fluorescence screen for Aggrecanase-1 inhibitors. The experiment is classed as biochemical. Particulars: Table 1.
Turning to `O=C(O)CC[C@H](NC(=O)c1ccc(-c2cccs2)o1)C(=O)NCc1ccccc1` [Example 21D, N^1-benzyl-N^2-(5-thien-2-yl-2-furoyl)-L-α-glutamine], the “Agg1 IC50 (nM)” value was “no inh”.

Regarding `O=C(O)CC[C@H](NC(=O)c1ccc(-c2ccco2)o1)C(=O)NCc1ccccc1` [Example 21C, N^1-benzyl-N^2-(2,2′-bifuran-5-ylcarbonyl)-L-α-glutamine], the “Agg1 IC50 (nM)” value is listed as “no inh”.

The same experiment, now with this note: Table 1; @ 7,500 (nM).
`O=C(O)CC[C@H](NC(=O)c1ccc(-c2ccc(OCC3CCCCC3)cc2)cc1)C(=O)NCc1ccccc1` [Example 15D, N^1-benzyl-N^2-{[4′-(cyclohexylmethoxy)-1,1′-biphenyl-4-yl]carbonyl}-L-α-glutamine]: the “Agg1 % @ concentration” value is recorded as 86% @.

Staying with this experiment, now noted: Table 1; enzyme not given, column follows Agg1 IC50; read-out: Ki.
For orientation: Ki means the equilibrium dissociation constant of an inhibitor or competing ligand from its target. In the case of `COc1cc(CNC(=O)[C@H](CCC(=O)O)NC(=O)c2ccc3c(c2)C(=O)c2ccccc2-3)cc(OC)c1OC` [Example 8MMMM, N^2-[(9-oxo-9H-fluoren-2-yl)carbonyl]-N^1-(3,4,5-trimethoxybenzyl)-L-α-glutamine], the Ki amounted to 57 nM.

Turning to `COc1cc(CNC(=O)[C@H](CCC(=O)O)NC(=O)c2ccc3c(c2)Cc2ccccc2-3)cc(OC)c1OC` [Example 8KKKK, N^2-(9H-fluoren-2-ylcarbonyl)-N^1-(3,4,5-trimethoxybenzyl)-L-α-glutamine], the Ki worked out at 4 nM.

The same experiment, now with this note: Table 1; read-out: Agg1 IC50.
For orientation: IC50 means the concentration that gives 50% inhibition. Consider `O=C(O)CC[C@H](NC(=O)c1ccc(-c2ccccc2)cc1)C(=O)NCC1C2CC3CC(C2)CC1C3` (stereo partly drawn) [Example 8I, N^1-(2-adamantylmethyl)-N^2-(1,1′-biphenyl-4-ylcarbonyl)-L-α-glutamine], for which the IC50 stood at 500 nM.

Regarding `COc1cc(CNC(=O)[C@H](CCC(=O)O)NC(=O)c2ccc3c(c2)C(=O)c2ccccc2-3)cc(OC)c1OC` [Example 8MMMM, N^2-[(9-oxo-9H-fluoren-2-yl)carbonyl]-N^1-(3,4,5-trimethoxybenzyl)-L-α-glutamine], the IC50 turned out to be 47 nM.

In the case of `CCCCCCNC(=O)[C@H](CCC(=O)O)NC(=O)c1ccc2c(c1)C(=O)c1ccccc1-2` [Example 8RRRR, N^1-hexyl-N^2-[(9-oxo-9H-fluoren-2-yl)carbonyl]-L-α-glutamine], the IC50 stood at 122 nM.

`O=C(O)CCC(NC(=O)c1ccc(Nc2ncccn2)cc1)C(=O)NCc1ccccc1` (stereo not shown) [Example 8HHHH]: the IC50 amounted to 200 nM.

For `CCCOc1ccc(-c2ccc(C(=O)N[C@@H](CCC(=O)O)C(=O)NCc3ccccc3)cc2)cc1` [Example 15A, N^1-benzyl-N^2-[(4′-propoxy-1,1′-biphenyl-4-yl)carbonyl]-L-α-glutamine], the IC50 is over 22000 nM.

As to `O=C(O)CC[C@H](NC(=O)c1ccc(-c2ccccc2)cc1)C(=O)NCc1cccc(F)c1` [Example 8XX, N^2-(1,1′-biphenyl-4-ylcarbonyl)-N^1-(3-fluorobenzyl)-L-α-glutamine], the IC50 is 300 nM.

On to `CC(C)(Cc1ccc(Cl)cc1)NC(=O)[C@H](CCC(=O)O)NC(=O)c1ccc2c(c1)Cc1ccccc1-2` [Example 6E, N^1-[2-(4-chlorophenyl)-1,1-dimethylethyl]-N^2-(9H-fluoren-2-ylcarbonyl)-L-α-glutamine], for which the IC50 came to 56 nM.

Turning to `CC(=O)Nc1ccc(-c2ccc(C(=O)N[C@@H](CCC(=O)O)C(=O)NCc3ccccc3)cc2)cc1` [Example 23, N^2-{[4′-(acetylamino)-1,1′-biphenyl-4-yl]carbonyl}-N^1-benzyl-L-α-glutamine], the IC50 is over 6000 nM.

On to `CCOc1ccccc1-c1ccc(CCNC(=O)[C@H](CCC(=O)O)NC(=O)c2ccc(-c3ccccc3)cc2)cc1` [Example 10E, N^2-(biphenyl-4-ylcarbonyl)-N^1-[2-(2′-ethoxybiphenyl-4-yl)ethyl]-L-α-glutamine], for which the IC50 is 370 nM.

Regarding `O=C(O)CC[C@H](NC(=O)c1ccc(Nc2ncccn2)cc1)C(=O)NCc1ccccc1` [Example 8UUUUUU, N^1-benzyl-N^2-[4-(pyrimidin-2-ylamino)benzoyl]-L-α-glutamine], the IC50 came out at 4000 nM.

In the case of `C#Cc1ccc(-c2ccc(C(=O)N[C@@H](CCC(=O)O)C(=O)NCc3ccccc3)cc2)cc1` [Example 12B, N^1-benzyl-N^2-[(4′-ethynyl-1,1′-biphenyl-4-yl)carbonyl]-L-α-glutamine], the IC50 stood at 35000 nM.

For `O=C(O)CC[C@H](NC(=O)c1ccc(-c2ccccc2)cc1)C(=O)NCc1cc(F)cc(F)c1` [Example 8AA, N^2-(1,1′-biphenyl-4-ylcarbonyl)-N^1-(3,5-difluorobenzyl)-L-α-glutamine], the IC50 turned out to be 370 nM.

As to `COc1cc(CNC(=O)[C@H](CCC(=O)O)NC(=O)c2ccc3c(c2)Cc2ccccc2-3)cc(OC)c1OC` [Example 8KKKK, N^2-(9H-fluoren-2-ylcarbonyl)-N^1-(3,4,5-trimethoxybenzyl)-L-α-glutamine], the IC50 is under 30 nM.

For `O=C(O)CC[C@H](NC(=O)c1ccc(-c2ccc(NC(=O)c3ccccc3)cc2)cc1)C(=O)O` [Example 30, N-{[4′-(benzoylamino)-1,1′-biphenyl-4-yl]carbonyl}-L-α-glutamic acid], the IC50 was 500 nM.

Regarding `CC(C)(C)CCNC(=O)[C@H](CCC(=O)O)NC(=O)c1ccc(-c2ccccc2)cc1` [Example 8LLL, N^2-(biphenyl-4-ylcarbonyl)-N^1-(3,3-dimethylbutyl)-L-α-glutamine], the IC50 was 230 nM.

As to `O=C(O)CC[C@H](NC(=O)c1ccc(-c2ccc(NC(=O)c3ccco3)cc2)cc1)C(=O)NCc1ccccc1` [Example 24A, N^1-benzyl-N^2-{[4′-(2-furoylamino)-1,1′-biphenyl-4-yl]carbonyl}-L-α-glutamine], the IC50 is 1100 nM.

For `O=Cc1ccc(-c2ccc(CCNC(=O)[C@H](CCC(=O)O)NC(=O)c3ccc(-c4ccccc4)cc3)cc2)cc1` [Example 9, N^2-(biphenyl-4-ylcarbonyl)-N^1-[2-(4′-formylbiphenyl-4-yl)ethyl]-L-α-glutamine], the IC50 came to 200 nM.

In the case of `CC(C)(Cc1ccc(F)cc1)NC(=O)[C@@H](CCC(=O)O)NC(=O)c1ccc(-c2ccccc2)cc1` [Example 8FFFF, N^2-(biphenyl-4-ylcarbonyl)-N^1-[2-(4-fluorophenyl)-1,1-dimethylethyl]-D-α-glutamine], the 50% inhibitory concentration (IC50) was 3600 nM.

With `CCN(CC)C(=O)[C@H](CCC(=O)O)NC(=O)c1ccc(-c2ccccc2)cc1` [Example 8EEE, N^2-(biphenyl-4-ylcarbonyl)-N^1,N^1-diethyl-L-α-glutamine], the IC50 is 7900 nM.

As to `O=C(O)CC[C@H](NC(=O)c1ccc(-c2ccccc2)cc1)C(=O)NCc1ccco1` [Example 8P, N^2-(1,1′-biphenyl-4-ylcarbonyl)-N^1-(2-furylmethyl)-L-α-glutamine], the IC50 came out at 290 nM.

`O=C(O)CC[C@H](NC(=O)c1ccc(-c2cccnc2)cc1)C(=O)NCc1ccccc1` [Example 12C, N^1-benzyl-N^2-(4-pyridin-3-ylbenzoyl)-L-α-glutamine]: the IC50 was found to be 25000 nM.

Take `O=C(O)CC[C@H](NC(=O)c1ccc(Oc2ccccc2)cc1)C(=O)NCCCc1ccccc1` [Example 8TTTTTT, N^2-(4-phenoxybenzoyl)-N^1-(3-phenylpropyl)-L-α-glutamine]: the IC50 was 17300 nM.

Take `CCOc1cccc(-c2ccc(C(=O)N[C@@H](CCC(=O)O)C(=O)NCc3ccccc3)o2)c1` [Example 21A, N^1-benzyl-N^2-[5-(3-ethoxyphenyl)-2-furoyl]-L-α-glutamine]: the IC50 was in the range of 2500 to 7500 nM.

In the case of `O=C(O)CC[C@H](NC(=O)c1ccc(-c2ccccc2)nc1)C(=O)NCc1ccccc1` [Example 22A, N^1-benzyl-N^2-[(6-phenylpyridin-3-yl)carbonyl]-L-α-glutamine], the IC50 turned out to be 1000 nM.

Take `O=C(O)CC[C@H](NC(=O)c1ccc(-c2ccccc2)cc1)C(=O)NCCc1cccc(-c2ccccn2)c1` [Example 10I, N^2-(biphenyl-4-ylcarbonyl)-N^1-[2-(3-pyridin-2-ylphenyl)ethyl]-L-α-glutamine]: the IC50 is 320 nM.

Turning to `Cc1ccc(C)c(-c2ccc(C(=O)N[C@@H](CCC(=O)O)C(=O)NCc3ccccc3)cc2)c1` [Example 13B, N^1-benzyl-N^2-[(2′,5′-dimethyl-1,1′-biphenyl-4-yl)carbonyl]-L-α-glutamine], the IC50 is about 50000 nM.

As for `O=C(O)CC[C@H](NC(=O)c1ccc(C(=O)c2ccccc2)cc1)C(=O)NCc1ccccc1` [Example 8SSSS, N^2-(4-benzoylbenzoyl)-N^1-benzyl-L-α-glutamine], the IC50 is over 200000 nM.

As to `O=C(O)CC[C@H](NC(=O)c1ccc(-c2ccc(NC(=O)c3ccc(F)cc3)cc2)cc1)C(=O)NCc1ccccc1` [Example 24B, N^1-benzyl-N^2-({4′-[(4-fluorobenzoyl)amino]1,1′-biphenyl-4-yl}carbonyl)-L-α-glutamine], the IC50 was about 2200 nM.

As for `NC(=O)[C@@H](CCC(=O)O)NC(=O)c1ccc(-c2ccccc2)cc1` [Example 4, N^2-(1,1′-biphenyl-4-ylcarbonyl)-D-alpha-glutamine], the IC50 was found to be 1100 nM.

In the case of `O=C(O)CC[C@H](NC(=O)c1ccc(-c2ccccn2)cc1)C(=O)NCc1ccccc1` [Example 12E, N^1-benzyl-N^2-(4-pyridin-2-ylbenzoyl)-L-α-glutamine], the IC50 worked out at 1800 nM.

Staying with this experiment, now noted: Table 2; read-out: Agg1 IC50.
Take `Cc1cccc(CNC(=O)[C@H](CCC(=O)O)NC(=O)c2ccc3c(c2)Cc2ccccc2-3)c1` [Example 8CCCCC, N^2-(9H-fluoren-2-ylcarbonyl)-N^1-(3-methylbenzyl)-L-α-glutamine]: the IC50 stood at 107 nM.

The same experiment, now with this note: Table 3; read-out: Agg1 IC50.
Regarding `CC(C)(Cc1ccccc1)NC(=O)[C@H](CCC(=O)O)NC(=O)c1cccc(-c2cccs2)c1` [N-(1,1-dimethyl-2-phenylethyl)-N^2-[3-(2-thienyl)benzoyl]-L-α-glutamine], the IC50 was over 8300 nM.
